Assay results from patent US10982174B2, “Synergistic surfactant blends” (STEPAN COMPANY, priority 2012, dated 2021).

Experiments:
Type in all cases: physicochemical
[1] = Critical micelle concentration (CMC) and beta parameter (synergy)
Method: Synergy can also be evaluated with respect to a blend's beta parameter (β), which can be calculated from the measured critical micelle concentration. Suitable methods for calculating β have been described previously (see, e.g., U.S. Pat. No. 5,360,571, the teachings of which are incorporated herein by reference).
Conveniently, the critical micelle concentration of a blend is measured at dilute concentrations in deionized water with pH adjusted to be within the range of 6 to 7. Critical micelle concentration generally refers to the minimum concentration of surfactant (in mg/L) needed to support micelle formation. The measurement can be performed, for instance, using a Krüss K12 tensiometer at 25° C. Once the critical micelle concentration is measured, the value of β can be found from:
where X is the total mole fraction of Surfactant 1 in the mixed micelles; α is the mole fraction of Surfactant 1 in solution; C1, C2, and C12 are the critical micelle concentrations of Surfactant 1, Surfactant 2, and their mixture; and β is the interaction parameter.
A negative value of β indicates synergy, while a positive value of β indicates antagonism, and values close to zero indicate little or no synergy.
The critical micelle concentration (CMC) of a blend is measured at a diluted concentration in deionized water with pH adjusted to 6-7. The measurement is done at 25° C. using a Kruss K100 tensiometer. The synergy of the blends, indicated by the beta parameter, is calculated based on the CMC data using the equation, β=[In(αA12/XA1)]/(1−X)^2 in which α is the mole fraction of the anionic surfactant in solution, X is the mole fraction of the anionic surfactant in mixed micelles, A1 is the critical micelle concentration of the anionic surfactant, and A12 is the critical micelle concentration of the blend.

[2] = Interfacial tension (IFT), pendant drop tensiometer, against light mineral oil; settings: individual surfactant, ambient temperature, in mN/m (unit assumed)
Method: Interfacial tension is measured by any suitable method. […] The expected IFT value for a blend is calculated based on ideal mixing (non-synergistic) using the active component in each blend. The equation used is: Expected IFT=X·IFTA+(1−X)·IFTB where X is the actives % of Component A, IFTA is the IFT of Component A, and IFTB is the IFT of Component B.
If the measured IFT for a blend is less than the expected IFT, the blend is synergistic; if the measured IFT for a blend is greater than the expected IFT, the blend is antagonistic.
Interfacial tension (IFT) of all the individual components and their blends is measured at a given % active against light mineral oil at ambient temperature using a Kruss DSA-20 pendent drop tensiometer.

[3] = Appearance / solubility of surfactant blends, neat and diluted with deionized water; settings: SLS/Quat (molar) 0:1
Method: All of the surfactant blends tested are prepared at the designated molar ratios without any pH adjustment. Dilutions are made using deionized water to the desired actives level. Actives amounts are wt. % unless indicated otherwise. Appearances are reported at ambient temperature for samples prepared within the last 24 h.

[4] = deionized water, pH 6-7, 25° C.

Structure (SMILES) | IFT (0.1% actives) [2] | Appearance 0.01% actives [3] | Appearance 0.2% actives [3] | Appearance concentrate [3] | further results
C=CCCCCCCCC(=O)OCC[N+](C)(C)C [C10-7, C10 DMEA Ester Quat] | – | – | – | – | Surface tension at CMC (mN/m) [1]: 41.1 mN/m; CMC (mg/L) [1, 4]: 342.6 mg/L; CMC (mol/L) [1, 4]: 0.000932 mol/L
C=CCCCCCCCC(=O)OC(CCCCCCCC(=O)[O-])CS(=O)(=O)[O-].[Na+].[Na+] (centres unmarked) [C10-32, C10 UFA SLA] | 25.9 | – | – | – | –
C=CCCCCCCCC(=O)NCCC[N+](C)(C)C [C10-18, C10 DMAPA Quat] | – | clear | clear | solid | –
CC/C=C/CCCCCCCC(=O)NCCC[N+](C)(C)C [C12-18] | – | clear | clear | solid | –
C=CCCCCCCCC[N+](C)(C)C [C10-42, C10 Amine DMS Quat] | 42.0 | – | – | – | –
